Measurements taken from publication PMC3469158, “Hesperidin-3′-O-Methylether Is More Potent than Hesperidin in Phosphodiesterase Inhibition and Suppression of Ovalbumin-Induced Airway Hyperresponsiveness” (Evidence-based Complementary and Alternative Medicine : eCAM, 2012).
Where two headings read alike, the source gives them in different places.

Key:
PDE4 [1] = experiment: PDE4 activity in homogenate of guinea pig lungs or hearts (PDE4L); format: biochemical; settings: guinea pig lung or heart homogenate; read-out: IC50 for PDE4 inhibition (PDE4L value)
Method: (§1) Activities of PDE1∼5 in the homogenate of guinea pig lungs or hearts were measured by a two-step procedure according to the previous method, using cAMP with [^3 H]-cAMP or cGMP with [^3 H]-cGMP as substrates. The enzyme preparation (25 μL) was incubated for 30 min at 37°C in a total assay volume of 100 μL containing 50 mM Tris-HCl (pH 7.4), 3 mM MgCl2, 1 mM dithiothreitol, 0.05% BSA, and 1 μM cAMP with 0.2 μCi [^3 H]-cAMP as a substrate alone or in the presence of 0.1 unit calmodulin with 10 μM CaCl2 or 5 μM cGMP, and 1 μM cGMP with 0.2 μCi [^3 H]-cGMP as another substrate alone or in the presence of 0.1 unit calmodulin with 10 μM CaCl2. […] The reagents and homogenate were mixed on ice, and the reaction was initiated by transferring the mixture to a water bath at 37°C. Following a 30 min incubation, the reaction was stopped by transferring the reaction vessel to a bath of boiling water for 3 min. After cooling on ice, 20 μL of a 1 mg/mL solution of Crotalus atrox snake venom was added to the reaction mixture, and the mixture was incubated at 37°C for 10 min. Unreacted [^3 H]-cAMP or [^3 H]-cGMP was removed by the addition of 500 μL of a 1-in-1 Tris-HCl (40 mM) buffer suspension of Dowex resin (1 × 2-400) with incubation on ice for 30 min. Each tube was then centrifuged at 3700 g for 2 min, and 100 μL of the supernatant was removed for liquid scintillation counting.

[2] = tested on: high-affinity rolipram-binding sites (HARBSs), PDE4H; experiment: Displacement of [3H]-rolipram from high-affinity rolipram-binding sites of brain cell membranes (PDE4H); set-up: species or system guinea pig; settings: for EC50: 2 nM [3H]-rolipram, read-out: EC50 (PDE4H) for displacing [3H]-rolipram binding; for PDE4H/PDE4L ratio: therapeutic ratio, EC50 (PDE4H) / IC50 (PDE4L)
Method: When the above-mentioned guinea pigs were sacrificed, the whole brains were removed and homogenized with a glass/Teflon homogenizer (Glas-Col, Terre Haute, IN, USA) in 10 volumes of cold medium (pH 6.5) containing 20 mM Bis-Tris, 2 mM benzamidine, 2 mM EDTA, 50 mM sodium chloride, 0.1 mM PMSF, and 1 mM dithiothreitol. At 4°C, the homogenate was centrifuged at 170 g for 5 min to remove connective tissues and blood vessels. The suspended homogenate was then recentrifuged at 40,000 g for 30 min to separate the cytosolic and particulate portions. The particulate portion was resuspended in a suspension at a concentration of 400 mg/mL (wet weight/volume), after washing three times with homogenizing buffer. The particulate portion mainly consisted of cell membranes. […] Briefly, the reaction buffer consisted of 50 mM Tris-HCl and 5 mM MgCl2 (pH 7.5). […] After 1 h, the reaction was terminated by moving the reaction vessel into crushed ice. Then the reaction mixture was transferred onto Whatman GF/B glass-fiber filters, which were soaked in a 0.3% polyethyleneimine solution in a mini-funnel.

[3] = tested on: duration of xylazine/ketamine-induced anesthesia; experiment: Xylazine/ketamine-induced anesthesia (surrogate of emesis); format: in vivo, BALB/c mice; settings: mice
Method: According to a previously described method and modified by us, hesperidin, hesperidin-3′-O-methylether (each 300 μmol/kg, subcutaneously (s.c.)), or Ro 20-1724 (0.01∼1 μmol/kg, s.c.), a reference drug, was, respectively, injected into 8∼12-week-old female BALB/c mice 1, 1 or 0.25 h prior to an i.p. injection of xylazine (10 mg/kg)/ketamine (70 mg/kg). The vehicle (control) for hesperidin, hesperidin-3′-O-methylether, or Ro 20-1724 was a mixture of DMSO : PEG 400 : saline (1 : 1 : 8, v/v). After the loss of the righting reflex (i.e., when a mouse remained on its back and no longer spontaneously righted itself to a prone position), the duration of anesthesia was measured until its return as the endpoint.

PDE4 [4] = settings: read-out: IC50 for PDE4 inhibition; cited from earlier work
[5] = tested on: xylazine/ketamine-induced anesthesia; settings: administered s.c.; cited from earlier work
PDE1 = PDE1 activity in homogenate of guinea pig lungs or hearts ([3H]-cAMP/[3H]-cGMP two-step procedure); format: biochemical; settings: guinea pig lung or heart homogenate; read-out: IC50 for PDE1 inhibition
Method: as §1

PDE3 = PDE3 activity in homogenate of guinea pig lungs or hearts; format: biochemical; settings: guinea pig lung or heart homogenate; read-out: IC50 for PDE3 inhibition
Method: as §1

[6] = tested on: airway hyperresponsiveness in ovalbumin-sensitized and challenged mice; experiment: Ovalbumin-induced airway hyperresponsiveness, Penh by whole-body plethysmography; format: in vivo, BABL/c mice; settings: for Penh value at the baseline / Penh value with PBS nebulization: sensitized and challenged mice; for enhancement of Penh values induced by 25 and 50 mg/mL methacholine: vs control (vehicle)
Method: (§2) According to the schedule (Figure 2), ten female BABL/c mice in each group were sensitized by an intraperitoneal (i.p.) injection of 20 μg of ovalbumin emulsified in 2.25 mg of an aluminum hydroxide gel, prepared from aluminum sulfate hexadecahydrate, in a total volume of 100 μL on days 0 and 14. Mice were challenged via the airway using 1% ovalbumin in saline for 30 min on days 28, 29, and 30 by ultrasonic nebulization. After the last ovalbumin challenge, AHR was assessed on day 32 (48 h after 1% ovalbumin provocation) in each group. Each group of mice was orally (p.o.) administered the vehicle (control), 30∼100 μmol/kg of hesperidin or 10∼100 μmol/kg of hesperidin-3′-O-methylether 2 h before and 6 and 24 h after ovalbumin provocation. For comparison, sham-treated mice were challenged with saline instead of 1% ovalbumin (nonchallenged). The vehicle, a mixture of DMSO : PEG 400 : saline (1 : 1 : 8, v/v), hesperidin, or hesperidin-3′-O-methylether was administered (p.o.) at a volume of 0.01 mL/g of body weight. AHR was assessed by barometric plethysmography using a whole-body plethysmograph (WBP) and analyzed using software of Life Science Suite P3 Analysis Modules (Gould, LDS Test and Measurement LLC, Valley View, OH, USA) in unrestrained animals. Mice were placed into the main chamber of the WBP, and the baseline enhanced pause (P enh) value was determined. Then mice were first nebulized with phosphate-buffered saline (PBS), and subsequently with increasing doses (6.25∼50 mg/mL) of methacholine for 3 min for each nebulization, followed by readings of breathing parameters for 3 min after each nebulization to determine P enh values. Twenty-four hours after P enh determination, these mice were anesthetized with pentobarbital (50 mg/kg, i.p.), and the lungs were lavaged via a tracheal tube with PBS (1 × 1.0 mL, 37°C). After lavage, blood was collected from the jugular vein and allowed to sit so that it would coagulate. The collected bronchoalveolar lavage fluid (BALF) and coagulated blood were respectively centrifuged at 630 g for 7 min and at 3700 g for 10 min at 4°C. After centrifugation, the BALF and serum supernatants were stored at −20°C until determinations of cytokines, including interleukin (IL)-2, IL-4, IL-5, tumor necrosis factor (TNF)-α, and interferon (IFN)-γ by flow cytometric methods using mouse Th1/Th2 cytokine CBA kits, and of a total immunoglobulin (Ig)E and IgG2a using ELISA kits (Pharmingen, San Diego, CA, USA) according to the respective recommendations of the manufacturers. Ovalbumin-specific IgE was measured as described previously. Wells were coated with 100 μL of ovalbumin (20 μg/mL) instead of the capture antibody. Levels are expressed in arbitrary units, where 1 arbitrary unit equals the optical density of the sample divided by the optical density of unchallenged mouse serum or BALF (standard). The BALF pellet was resuspended in ACK lysing buffer (1.658 g NH4Cl, 0.2 g KHCO3, and […] EDTA in 200 mL of water) to lyse the residual erythrocytes in each sample. The number of inflammatory cells was counted using a hemocytometer (Hausser Scientific, Horsham, PA, USA). Cytospin slides were stained and cell differentials were determined in a blinded fashion by counting at least 100 cells under light microscopy. All undetectable data (<1 pg/mL) of cytokines were taken as 0.5 pg/mL.

[7] = tested on: inflammatory cells in BALF; experiment: Inflammatory cell counts in BALF of sensitized and challenged mice; format: in vivo, BABL/c mice; settings: for numbers of all inflammatory cells examined in BALF: 30 μmol/kg p.o.
Method: as §2

cytokines in BALF = experiment: Cytokine levels in BALF of sensitized and challenged mice (flow cytometric CBA); format: in vivo, BABL/c mice
Method: as §2

[8] = tested on: IgE and IgG2a in serum and BALF; experiment: Total and ovalbumin-specific IgE and total IgG2a in serum and BALF (ELISA); format: in vivo, BABL/c mice
Method: as §2

IL-4 = tested on: IL-4; set-up: method as in PMID 21287361; settings: 10 mg/kg (16.38 μmol/kg, p.o.); similar animal model; cited from earlier work
[9] = guinea pig brain cell membranes

## CCCCOc1cc(CC2CNC(=O)N2)ccc1OC (stereo not shown) [Ro 20-1724, 4-(3-butoxy-4-methoxybenzyl)-2-imidazolidinone, reference compound]
PDE4 [1]
  IC50: 3.5 ± 0.2 µM
[2]; [9]
  EC50: 0.105 ± 0.0131 µM
[2]
  PDE4H/PDE4L ratio: 0.03
[3]; 0.01∼1 μmol/kg s.c., 0.25 h before anesthesia
  duration of xylazine/ketamine-induced anesthesia: dose-dependently shortened
[3]; 0.03∼1 μmol/kg s.c., 0.25 h before anesthesia
  duration of xylazine/ketamine-induced anesthesia: significantly shortened

## COc1cc(O)c2c(c1)O[C@H](c1ccc(OC)c(OC)c1)CC2=O [hesperetin-7,3′-O-dimethylether]
PDE4 [4]
  IC50: 3 µM

## COc1ccc([C@@H]2CC(=O)c3c(O)cc(O)cc3O2)cc1O [hesperetin]
PDE4 [4]
  IC50: 28.2 µM
[5]
  xylazine/ketamine-induced anesthesia: not influence

## COc1ccc(C2CC(=O)c3c(O)cc(O[C@@H]4O[C@H](CO[C@@H]5O[C@@H](C)[C@H](O)[C@@H](O)[C@H]5O)[C@@H](O)[C@H](O)[C@H]4O)cc3O2)cc1OC (stereo partly shown) [hesperidin-3′-O-methylether]
PDE1
  IC50: 13.6 ± 2.3 µM
PDE3
  IC50: 13.2 ± 0.9 µM
PDE4 [1]
  IC50: 13.9 ± 2.4 µM
[2]; [9]
  EC50: 218 ± 32.1 µM
[2]
  PDE4H/PDE4L ratio: 15.7
[6]; 10 μmol/kg p.o.
  Penh value at the baseline: 2.41 ± 0.05
  Penh value with PBS nebulization: 2.41 ± 0.06
[6]; 30 μmol/kg p.o.
  suppression of AHR: significantly suppressed AHR
  Penh value at the baseline: 2.38 ± 0.06
  Penh value with PBS nebulization: 2.42 ± 0.05
[6]; 100 μmol/kg p.o.
  Penh value at the baseline: 2.41 ± 0.05
  Penh value with PBS nebulization: 2.39 ± 0.06
[6]; 30∼100 μmol/kg p.o.
  enhancement of Penh values induced by 25 and 50 mg/mL methacholine: significantly attenuated
[7]; 10 μmol/kg p.o.
  numbers of all types of inflammatory cells in BALF: unaffected
[7]
  numbers of all inflammatory cells examined in BALF: significantly suppressed
[7]; 30∼100 μmol/kg p.o.
  increases in numbers of total inflammatory cells, macrophages, lymphocytes, neutrophils, and eosinophils in BALF: significantly suppressed
Cytokines in BALF; 100 μmol/kg p.o.
  level of IFN-γ in BALF compared to the control: significantly enhanced
Cytokines in BALF; 10∼100 μmol/kg p.o.
  increases in levels of IL-2, IL-4, TNF-α in BALF: significantly suppressed
Cytokines in BALF; 30∼100 μmol/kg p.o.
  increase in level of IL-5 in BALF: significantly suppressed
[8]; 30 μmol/kg p.o.
  level of total IgG2a in the serum: enhanced
  total and OVA-specific IgE levels in the serum and BALF: significantly suppressed
[8]; 30∼100 μmol/kg p.o.
  levels of total and ovalbumin-specific IgE in the serum and BALF: dose-dependently and significantly suppressed
  reduction of total IgG2a level in the serum: dose-dependently and significantly reversed

## COc1ccc([C@@H]2CC(=O)c3c(O)cc(O[C@@H]4O[C@H](CO[C@@H]5O[C@@H](C)[C@H](O)[C@@H](O)[C@H]5O)[C@@H](O)[C@H](O)[C@H]4O)cc3O2)cc1O [hesperidin]
PDE1
  IC50: > 100 µM
PDE3
  IC50: > 100 µM
PDE4 [1]
  IC50: > 100 µM
[2]; [9]
  EC50: > 300 µM
[2]; 300 μM, guinea pig brain cell membranes
  displacement of 2 nM [3H]-rolipram binding on HARBSs: 27.0 ± 1.4%
[2]
  PDE4H/PDE4L ratio: 3
[6]; 30 μmol/kg p.o.
  suppression of AHR: but not hesperidin, significantly suppressed AHR
  Penh value at the baseline: 2.39 ± 0.06
  Penh value with PBS nebulization: 2.40 ± 0.05
[6]; 100 μmol/kg p.o.
  Penh value at the baseline: 2.41 ± 0.04
  Penh value with PBS nebulization: 2.39 ± 0.05
  enhancement of Penh values induced by 25 and 50 mg/mL methacholine: significantly attenuated
[7]
  numbers of all inflammatory cells examined in BALF: unaffected
[7]; 100 μmol/kg p.o.
  increases in numbers of total inflammatory cells, macrophages, lymphocytes, neutrophils, and eosinophils in BALF: significantly suppressed
Cytokines in BALF; 100 μmol/kg p.o.
  increase in level of TNF-α in BALF: significantly suppressed
  level of IFN-γ in BALF compared to the control: significantly enhanced
Cytokines in BALF; 30∼100 μmol/kg p.o.
  increases in levels of IL-2, IL-4, IL-5 in BALF: significantly suppressed
[8]; 30 μmol/kg p.o.
  total and OVA-specific IgE levels in the serum and BALF: but not hesperidin, significantly suppressed
[8]; 100 μmol/kg p.o.
  levels of total and ovalbumin-specific IgE in the BALF and serum: significantly suppressed
  reduction of total IgG2a level in the serum: significantly reversed
[3]; 300 μmol/kg s.c., 1 h before anesthesia
  duration of xylazine/ketamine-induced anesthesia: Neither hesperidin nor hesperidin-3′-O-methylether (each 300 μmol/kg, s.c.) influenced the duration
IL-4
  level of IL-4: insignificantly inhibit

## Cc1[nH]c(=O)c(C#N)cc1-c1ccncc1 [milrinone, reference compound]
PDE3
  IC50: 2.7 ± 0.8 µM

## CCOC(=O)C1=C[C@]2(CC)CCCN3CCc4c(n1c1ccccc41)[C@@H]32 [vinpocetine, reference compound]
PDE1
  IC50: 30.8 ± 1.1 µM
